This note sets out measurements from ChEMBL document CHEMBL1201862, “PubChem BioAssay data set” (2004).

Some test systems named below: EKVX; NCI-H522; HCT-15; CCRF-CEM; HCC 2998; OVCAR-8; TK-10; M14; UACC-257; OVCAR-5; HOP-92; HL-60; OVCAR-4; SF-295; UO-31; MDA-MB-435; Hs-578T; PC-3; SW-620.
Common to all, as to experiment: NCI tumour cell line growth inhibition, 48 h

SMILES strings stand for the structures.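 Protocol summary: plate cells (96-well), add compound at 5 concentrations, incubate 48 h, interpolate endpoints linearly. GI50: concentration for 50% inhibition of growth.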 Active and inactive are the calls of the source. No stated cut-off is given here; in the data, active = GI50 up to about 1.1 µM and inactive = higher.

With `COC(=O)C(=O)C(C(=O)C=C(C)C)C(=O)C(=O)Nc1ccc(Cl)cc1C` (configuration not stated), the GI50 is > 100 µM (inactive) in the experiment on EKVX; 69.2 µM (inactive) in the experiment on NCI-H522; over 100 µM in the experiment with HCT-15; 87.5 µM (inactive) in the experiment on CCRF-CEM; > 100 µM (inactive) in the experiment with HCC 2998; > 100 µM (inactive) in the experiment with OVCAR-8. Besides, the GI50 with TK-10, in the experiment on M14, in the experiment on UACC-257, with OVCAR-5, with HOP-92 and in the experiment with HL-60 was > 100 µM (inactive) each time. The GI50 with OVCAR-4, in the experiment on SF-295 and with UO-31 was > 100 µM (inactive) each time.

Regarding `CN(C)/C=N/c1c2ccccc2nc2ccccc12`, the GI50 in the experiment on EKVX is 9.46 µM (inactive); in the experiment on MDA-MB-435, 4.21 µM (inactive); in the experiment on Hs-578T, 2.01 µM (inactive); with NCI-H522, 2.01 µM (inactive); with HCT-15, 8.13 µM; with CCRF-CEM, 4.21 µM (inactive). Further, the GI50 is 3.92 µM (inactive) in the experiment with OVCAR-8; 2.98 µM (inactive) with PC-3; 7.16 µM (inactive) in the experiment with TK-10; 5.37 µM (inactive) in the experiment on M14; 2.3 µM (inactive) with UACC-257; 6.52 µM (inactive) with OVCAR-5. In addition, the GI50 in the experiment with HOP-92 is 5.4 µM (inactive); in the experiment on HL-60 it was 3.65 µM (inactive); in the experiment with OVCAR-4, 6.64 µM (inactive); in the experiment with SF-295, 5.7 µM (inactive); with UO-31, 5.86 µM (inactive).

With `COc1cc(Nc2cnc3ccc(N)cc3n2)cc(OC)c1OC`, the GI50 is > 100 µM (inactive) in the experiment with EKVX; > 100 µM (inactive) in the experiment with SW-620; 50.1 µM (inactive) in the experiment with NCI-H522; 69.2 µM in the experiment with HCT-15; 19.8 µM (inactive) with CCRF-CEM; > 100 µM (inactive) in the experiment on HCC 2998. Besides, the GI50 is > 100 µM (inactive) in the experiment on OVCAR-8; > 83.6 µM (inactive) in the experiment on TK-10; > 100 µM (inactive) in the experiment with M14; > 57 µM (inactive) with UACC-257; > 100 µM (inactive) with OVCAR-5; 61.2 µM (inactive) in the experiment with HOP-92. Further, the GI50 in the experiment on HL-60 was 17.7 µM (inactive); in the experiment with OVCAR-4, > 100 µM (inactive); in the experiment with SF-295 it was > 96.6 µM (inactive); with UO-31, 37.8 µM (inactive).

For `N/N=C1\c2ccccc2C2/C(=N\N)c3ccccc3C12` (configuration not stated), the GI50 was > 100 µM (inactive) with EKVX; > 100 µM (inactive) in the experiment with SW-620; > 100 µM (inactive) in the experiment on NCI-H522; over 100 µM in the experiment with HCT-15; > 100 µM (inactive) with CCRF-CEM; > 100 µM (inactive) with HCC 2998. Also, the GI50 in the experiment with OVCAR-8, with TK-10, in the experiment with M14, in the experiment on UACC-257, with OVCAR-5 and in the experiment with HOP-92 was > 100 µM (inactive) each time. Besides, the GI50 was > 100 µM (inactive) in the experiment with HL-60, > 100 µM (inactive) in the experiment with OVCAR-4, > 100 µM (inactive) in the experiment on SF-295 and > 10 µM (inactive) with UO-31.

Turning to `Cc1c(-c2nnc(-c3ccc(Cl)cc3)o2)c(=O)n(-c2ccccc2)n1C`, the GI50 with EKVX is > 100 µM (inactive); in the experiment on SW-620, > 100 µM (inactive); in the experiment on NCI-H522, > 100 µM (inactive); with HCT-15 it was over 100 µM; in the experiment on CCRF-CEM, > 100 µM (inactive); in the experiment with HCC 2998, > 100 µM (inactive). Also, the GI50 in the experiment on OVCAR-8, with TK-10, in the experiment with M14, with UACC-257, with HOP-92 and in the experiment with HL-60 was > 100 µM (inactive) throughout. Further, the GI50 with OVCAR-4, with SF-295 and in the experiment on UO-31 was > 100 µM (inactive) each time.

For the compound `CN(C)c1ccc(/C=C(\C#N)C(=O)c2ccccc2)cc1Br`, the GI50 in the experiment with EKVX is > 100 µM (inactive); with SW-620, 66.1 µM (inactive); in the experiment on NCI-H522, > 100 µM (inactive); with CCRF-CEM it was 35.6 µM (inactive); with HCC 2998 it was > 100 µM (inactive); with OVCAR-8 it was > 100 µM (inactive). The GI50 in the experiment with TK-10 was > 100 µM (inactive); in the experiment on M14, > 100 µM (inactive); with UACC-257, > 100 µM (inactive); with OVCAR-5 it was > 100 µM (inactive); with HOP-92, > 100 µM (inactive); with HL-60, 25.7 µM (inactive). Besides, the GI50 in the experiment on OVCAR-4, in the experiment with SF-295 and with UO-31 was > 100 µM (inactive) throughout.

Regarding `CCCCCC/C=C1\CCC(CN2CCCC2)C1=O` (configuration not stated), the GI50 with EKVX was 18.5 µM (inactive); in the experiment with SW-620, > 28.2 µM (inactive); in the experiment on NCI-H522, 1.56 µM (inactive); in the experiment with HCT-15, 9.16 µM; in the experiment with CCRF-CEM, 4.49 µM (inactive); in the experiment with HCC 2998, 17.5 µM (inactive). The GI50 in the experiment on OVCAR-8 is 17.2 µM (inactive); in the experiment on TK-10, 6.56 µM (inactive); with M14 it was 18.6 µM (inactive); with UACC-257, 17.9 µM (inactive); in the experiment with OVCAR-5, 18.3 µM (inactive); with HOP-92, 16.7 µM (inactive). For the same compound, the GI50 with HL-60 was 2.33 µM (inactive); with OVCAR-4 it was 22.8 µM (inactive); with SF-295, 18.9 µM (inactive); in the experiment on UO-31, 18.9 µM (inactive).

As to `COC1=C(C)C(=O)c2c(cc3c(c2O)C(C)(CCC=C(C)C)C(C)O3)C1=O` (configuration not stated), the GI50 with EKVX is > 100 µM (inactive); with SW-620, > 100 µM (inactive); in the experiment on NCI-H522, > 100 µM (inactive); in the experiment with HCT-15 it was 27.4 µM; in the experiment on CCRF-CEM it was > 100 µM (inactive); with HCC 2998, 42.1 µM (inactive). Besides, the GI50 with OVCAR-8 is > 100 µM (inactive); with TK-10, > 100 µM (inactive); with M14 it was 23.4 µM (inactive); in the experiment on UACC-257, > 72.9 µM (inactive); with OVCAR-5, > 100 µM (inactive); in the experiment with HOP-92 it was > 100 µM (inactive). In addition, the GI50 in the experiment with HL-60 is > 100 µM (inactive); in the experiment with OVCAR-4 it was > 100 µM (inactive); in the experiment on SF-295 it was 20.3 µM (inactive); with UO-31 it was > 100 µM (inactive).

For the compound `O=C1[C@H]2ON(c3ccccc3)C(c3ccccc3Cl)[C@H]2C(=O)N1c1ccc(Cc2ccc(N3C(=O)[C@@H]4ON(c5ccccc5)C(c5ccccc5Cl)[C@@H]4C3=O)cc2)cc1` (some centres not stated), the GI50 in the experiment with EKVX was > 100 µM (inactive); in the experiment with SW-620, > 100 µM (inactive); with NCI-H522 it was > 100 µM (inactive); in the experiment on HCT-15 it was over 100 µM; with CCRF-CEM, > 100 µM (inactive); in the experiment on HCC 2998, > 100 µM (inactive). The GI50 in the experiment with OVCAR-8 was > 100 µM (inactive); with TK-10, > 100 µM (inactive); with M14, 21.7 µM (inactive); in the experiment on UACC-257, > 100 µM (inactive); in the experiment on OVCAR-5 it was > 100 µM (inactive); in the experiment with HOP-92, 71 µM (inactive). For the same compound, the GI50 in the experiment with HL-60, in the experiment with OVCAR-4, in the experiment on SF-295 and with UO-31 was > 100 µM (inactive) throughout.
